According to patent publication US8440209B2, “Adhesive for medical applications and means for haemostasis” (Stryker Trauma GmbH, priority 2006, dated 2013):

System: S. aureus ATCC 6538
Assay: agar diffusion test according to Burkhardt
Type: cell-based
Details: 18+2 hours at 36° C.
Procedure: The agar diffusion test according to Burkhardt (Burkhardt, F. (Hrsg.) Mikrobiologische Diagnostik. Georg-Thieme Verlag Stuttgart, New York 1992, p. 724) was carried out. Mueller-Hinton II-Agar in Stacker Petri dishes (Becton Dickinson Microbiology Systems, Cockeysville, USA) were employed in the test for 15. The strain S. aureus ATCC 6538 was selected as test strain. The initial seed of this test strain was chosen such that after […] of incubation, closely standing, but not confluent, single colonies had developed. After drying of the seeded culture media, the treated collagen non-woven material was applied to the agar surface. After 18+2 hours incubation at 36° C., the inhibition sphere was measured.

## Gentamycine
Treatment 20%
  Inhibition sphere against S. aureus ATCC 6538: 24
Treatment 40%
  Inhibition sphere against S. aureus ATCC 6538: 38
